# Source: patent US20240285497A1, “METHOD FOR EVALUATING AN ABILITY OF A TEST SAMPLE TO TRIGGER A FOREIGN BODY REACTION IN THE SKIN, A METHOD FOR SCREENING A SUBSTANCE HAVING AN ABILITY TO INHIBIT A FOREIGN BODY REACTION IN THE SKIN, AND AN AGENT FOR INHIBITING A FOREIGN BODY REACTION IN THE SKIN” (priority 2021, published 2024)
# What was measured:
# [1] = tested on: xenobiotic responsive element (XRE); assay: Screening: inhibition of FICZ-triggered reporter protein expression in XRE-NLuc::HaCaT cells; assay type: cell-based, human; settings: FICZ 5,000 nM, 24 hours
# Procedure: First, in the same manner as in Experiment 1-2, XRE-NLuc::HaCaT cells were suspended in a DMEM medium at the density of 1×10^5 cell/mL, and 100 μL of the thus obtained suspension was added to each well of white 96-well plates (Thermo Fisher Scientific, MA, U.S.A.; Catalogue No.: 136102) so that a number of the cells in each well was 10,000 cells/well. In accordance with the conventional method, the cells were incubated for 24 hours at 37° C. and 5% CO2. Thereafter, the DMEM medium was removed, and 100 μL of a new DMEM medium containing […] of FICZ, which was confirmed to activate the expression of the reporter protein in Experiment 1-2, and a candidate substance at a predetermined concentration. Meanwhile, reference samples were also prepared by adding 100 μL of a DMEM medium containing 5,000 nM of FICZ but not containing candidate substances. In this experiment, 5-hydroxy-4-phenyl-2(5H)butenolide (hereinafter also referred to as “Fraglide-1” or “FG1”) and, as a positive control, cinnamaldehyde, which is known to have an effect of inhibiting a foreign body reaction in which a xenobiotic responsive element (XRE) is involved, were used as test substances. After incubation for 24 hours at 37° C. and 5% CO2, the expression level of the reporter protein (luminescence intensity) and the viable cell count were measured in accordance with the method described in Experiment 1-2, and the expression of the reporter protein per unit number of viable cells was obtained. The inhibition rate (Inhibition (%)) of the expression of the reporter protein exerted by each candidate substance was calculated in accordance with the following formula.
# In the above formula, (Reporter Expression)FICZ indicates the expression of the reporter protein per unit number of viable cells obtained from the reference samples: i.e., the cells incubated in the medium containing 5,000 nM of FICZ but not containing candidate substances. Meanwhile, (Reporter Expression)FICZ+TEST SAMPLE indicates the expression of the reporter protein per unit number of viable cells obtained from the cells incubated in the medium containing 5,000 nM of FICZ and a candidate substance. The results shown in FIG. 6 were the mean obtained from three independent experiments. The error bars represent the standard error (SE).
# [2] = tested on: artemin mRNA; assay: Artemin mRNA expression in HaCaT cells contacted with FICZ, quantitative PCR; assay type: cell-based, human; settings: 24 hours; for expression level of artemin mRNA compared to cells without FICZ: no Fraglide-1
# Procedure: First, HaCaT cells (CLI; Catalogue No.: 300493) were suspended in a DMEM medium at the density of 1×10^5 cell/mL, and 100 μL of the thus obtained suspension was added to each well of white 96 well plates (Thermo Fisher Scientific, MA, U.S.A.; Catalogue No.: 136102) so that the number of the cells in each well was 10,000 cells/well. In accordance with a conventional method, the cells were incubated at 37° C. for 24 hours in the presence of 5% CO2. Thereafter, the DMEM medium was removed, and 100 μL of a new DMEM medium containing FICZ at a predetermined concentration (i.e., 5 nM, 50 nM, 500 nM, and 5,000 nM) was added, followed by further incubation for 24 hours at 37° C. and 5% CO2. Meanwhile, negative controls were prepared by adding 100 μL of a DMEM medium containing no FICZ instead of the DMEM medium containing FICZ, which were also incubated for 24 hours at 37° C. and 5% CO2.
# After the above-described incubation for 24 hours, total RNA was extracted and cDNA was prepared using a PCR kit “SuperPrep II Cell Lysis & RT Kit for qPCR” (Catalogue No.: SCQ-401) manufactured by Toyobo Co., Ltd. (Osaka, Japan) in accordance with a method described in the manual attached to the kit. Briefly, after the above-described incubation for 24 hours, cell culture medium was removed from each well and the cells were washed with PBS (Phosphate-buffered saline). Thereafter, each well was added with 10 μL of a lysis reagent, which was prepared by mixing 58.7 μL of “Lysis solution”, 0.3 μL of “gDNA Remover” and 1 μL of “RNase Inhibitor” attached to the above PCR kit. The cell culture plate was shaken for about 30 seconds, and allowed to stand at room temperature for 5 minutes, to obtain a cell lysate containing total RNA that can be used as a template for reverse transcription reaction. Herein, “Lysis Solution” was a cell lysis agent to lyse cells; “gDNA remover” was a reagent containing DNase I that degrades genome DNA; and “RNase Inhibitor” was a reagent to inhibit degradation of RNA by cellular components such as RNase, etc.
# Next, cDNA was synthesized from the extracted RNA by reverse transcription. Firstly, a master mix for reverse transcription reaction was prepared by mixing 8 μL of “5×RT Master Mix” and 24 μL of “Nuclease-free water”, which were attached to the above PCR kit “SuperPrep II Cell Lysis & RT Kit for qPCR” manufactured by Toyobo Co., Ltd. (Osaka, Japan). Preparation of the master mix for reverse transcription reaction was carried out on ice. In a PCR tube, 32 μL of the obtained master mix was dispensed and then 8 μL of the above cell lysate present in each well was added to make a total volume 40 μL, which was used for the following reverse transcription reaction. The reverse transcription reaction was carried out under the conditions of 37° C. for 15 mins, 50° C. for 5 mins, and 98° C. for 5 mins. The thus obtained cDNA solution was added with 80 μL of sterile water and then frozen at −20° C. for storage.
# Quantitative PCR was carried out by using THUNDERBIRD Next SYBR qPCR Mix (Toyobo Co., Ltd., Osaka, Japan; Catalogue No. QPX-201) and StepOne Real-Time PCR System (Thermo Fisher Scientific, MA, USA). […] The reaction solution was used for quantitative PCR. Based on Ct (cycle threshold) value obtained by quantitative PCR, an amount of mRNA of each target gene was obtained. […]
Molecule,Inhibition (%) of expression of the reporter protein triggered by FICZ ([1]; 12.5 μM test substance),Inhibition (%) of expression of the reporter protein triggered by FICZ ([1]; 25 μM test substance),Inhibition (%) of expression of the reporter protein triggered by FICZ ([1]; 50 μM test substance),"expression level of artemin mRNA compared to cells without FICZ ([2]; HaCaT cells, 500 nM FICZ)","expression level of artemin mRNA compared to cells without FICZ ([2]; HaCaT cells, 5,000 nM FICZ)",concentration necessary to observe a significant increase in the expression level of artemin mRNA ([2]; HaCaT cells),"change in expression level of artemin mRNA ([2]; HaCaT cells, FICZ 50 nM or lower)","expression level of artemin mRNA, dependence on concentration ([2]; HaCaT cells, FICZ 5-5,000 nM)"
"O=C1C=C(c2ccccc2)C(O)O1 (centres unmarked) [Fraglide-1, 5-hydroxy-4-phenyl-2(5H)butenolide]",58%,68%,83%,–,–,–,–,–
"6-formylindolo[3,2-b] carbazole [FICZ]",–,–,–,about 3.0 fold,~3.7 fold,at least 500 nM,no change was observed,increased along with the concentration of FICZ
